# Experimental data as given in ChEMBL document CHEMBL1131172 (J Med Chem, 1998).
# Tests used:
# [1] = tested on: NCI-H460; experiment: inhibition of the growth of non-small-cell lung cancer (NCI-H460) cell line at 0.01 uM; assay type: functional; details: Homo sapiens
# [2] = tested on: M14; experiment: Inhibition of the growth of melanoma cancer (M14) cell line at 0.01 uM; assay type: functional; details: Homo sapiens
# [3] = tested on: NCI-H322M; experiment: Inhibition of the growth of non-small-cell lung cancer (NCI-H322M) cell line; details: Homo sapiens
# [4] = tested on: SR; experiment: Inhibition of the growth of leukemia(SR) cell line. value in parentheses is percent inhibition at 0.01 uM; assay type: functional; details: Homo sapiens
# [5] = tested on: IGROV-1; experiment: Inhibition of the growth of ovarian cancer(IGROVI) cell line at 0.01 uM; assay type: functional; details: Homo sapiens
# [6] = molecular target: T1, Bifunctional dihydrofolate reductase-thymidylate synthase (Toxoplasma gondii, UniProt Q07422)
# T1 sequence (Q07422 whole entry): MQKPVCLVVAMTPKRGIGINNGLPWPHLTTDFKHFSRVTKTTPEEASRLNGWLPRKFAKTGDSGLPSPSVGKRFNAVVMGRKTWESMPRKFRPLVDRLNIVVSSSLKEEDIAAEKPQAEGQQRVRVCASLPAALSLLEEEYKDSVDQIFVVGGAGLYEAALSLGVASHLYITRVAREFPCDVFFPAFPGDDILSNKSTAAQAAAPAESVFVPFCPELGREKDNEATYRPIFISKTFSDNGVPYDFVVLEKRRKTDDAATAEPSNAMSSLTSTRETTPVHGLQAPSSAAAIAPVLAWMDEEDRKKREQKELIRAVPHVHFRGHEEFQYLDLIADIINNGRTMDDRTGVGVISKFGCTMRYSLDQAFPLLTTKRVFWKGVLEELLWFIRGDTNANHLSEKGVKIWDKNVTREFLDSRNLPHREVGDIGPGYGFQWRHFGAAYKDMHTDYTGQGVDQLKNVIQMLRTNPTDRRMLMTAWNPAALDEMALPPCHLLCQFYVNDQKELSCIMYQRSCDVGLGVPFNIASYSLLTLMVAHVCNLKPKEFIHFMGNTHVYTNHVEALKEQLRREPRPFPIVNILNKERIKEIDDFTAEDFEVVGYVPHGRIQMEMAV
# Description: Inhibitory activity against dihydrofolate reductase (DHFR) from Toxoplasma gondii
# [7] = tested on: CAKI-1; experiment: Inhibition of the growth of renal cancer(CAKI-1) cell line at 0.01 uM; assay type: functional; details: Homo sapiens
# [8] = tested on: SNB-19; experiment: inhibition of the growth of CNS cancer(SNB-19) cell line; assay type: functional; details: Homo sapiens
# [9] = tested on: SF-268; experiment: Inhibition of the growth of CNS cancer(SF-268) cell line at 0.01 uM; assay type: functional; details: Homo sapiens
# [10] = tested on: NCI-H522; experiment: Inhibition of the growth of non-small-cell lung cancer (NCI-H522) cell line at 0.01 uM; assay type: functional; details: Homo sapiens
# [11] = tested on: A549; experiment: Inhibition of the growth of non-small-cell lung cancer (A549/ATCC) cell line at 0.01 uM; assay type: functional; details: Homo sapiens
# [12] = tested on: HCT-15; experiment: inhibition of the growth of colon cancer(HCT-15) cell line; assay type: functional; details: Homo sapiens
# [13] = tested on: SK-MEL-5; experiment: Inhibition of the growth of melanoma cancer (SK-MEL-5) cell line; assay type: functional; details: Homo sapiens
# [14] = tested on: MCF7; experiment: Inhibition of the growth of breast cancer (MCF-7) cell line; assay type: functional; details: Homo sapiens
# [15] = tested on: HCT-116; experiment: inhibition of the growth of colon cancer(HCT116) cell line; assay type: functional; details: Homo sapiens
# [16] = tested on: NCI-H522; experiment: inhibition of the growth of non-small-cell lung cancer (NCI-H522) cell line; assay type: functional; details: Homo sapiens
# [17] = tested on: A549; experiment: Inhibition of the growth of non-small-cell lung cancer (A549/ATCC) cell line; assay type: functional; details: Homo sapiens
# [18] = tested on: NCI/ADR-RES; experiment: Inhibition of the growth of breast cancer (MCF7/ADR-RES) cell line; assay type: functional; details: Homo sapiens
# [19] = tested on: IGROV-1; experiment: Inhibition of the growth of ovarian cancer(IGROVI) cell line; assay type: functional; details: Homo sapiens
# [20] = tested on: KM12; experiment: inhibition of the growth of colon cancer(KM-12) cell line at 0.01 uM; assay type: functional; details: Homo sapiens
# [21] = tested on: RPMI-8226; experiment: Inhibition of the growth of leukemia (RPMI-8226) cell line; assay type: functional; details: Homo sapiens
# [22] = tested on: OVCAR-8; experiment: Inhibition of the growth of ovarian cancer(OVCAR-8) cell line; assay type: functional; details: Homo sapiens
# [23] = tested on: 786-0; experiment: Inhibition of the growth of renal cancer(786-0) cell line. value in parentheses is percent inhibition at 0.01 uM; assay type: functional; details: Homo sapiens
# [24] = tested on: UO-31; experiment: Inhibition of the growth of renal cancer(UO-31) cell line; assay type: functional; details: Homo sapiens
# [25] = tested on: MDA-MB-435; experiment: Inhibition of the growth of breast cancer (MDA-MB-435) cell line; assay type: functional; details: Homo sapiens
# [26] = tested on: UO-31; experiment: Inhibition of the growth of renal cancer(UO-31) cell line at 0.01 uM; assay type: functional; details: Homo sapiens
# [27] = tested on: MDA-N; experiment: Inhibition of the growth of breast cancer(MDA-N) cell line; assay type: functional; details: Homo sapiens
# [28] = tested on: SR; experiment: Inhibition of the growth of leukemia(SR) cell line. value in parentheses is percent inhibition at 0.01 uM at 0.01 uM; assay type: functional; details: Homo sapiens
# [29] = tested on: SF-295; experiment: Inhibition of the growth of CNS cancer(SF-295) cell line at 0.01 uM; assay type: functional; details: Homo sapiens
# [30] = tested on: NCI-H23; experiment: Inhibition of the growth of non-small-cell lung cancer (NCI-H23) cell line; assay type: functional; details: Homo sapiens
# [31] = tested on: DU-145; experiment: Inhibition of the growth of prostate cancer(DU-145) cell line at 0.01 uM; assay type: functional; details: Homo sapiens
# [32] = tested on: M14; experiment: Inhibition of the growth of melanoma cancer (M14) cell line; assay type: functional; details: Homo sapiens
# [33] = molecular target: T2, Dihydrofolate reductase (Pneumocystis carinii, UniProt P16184)
# T2 sequence (P16184 whole entry): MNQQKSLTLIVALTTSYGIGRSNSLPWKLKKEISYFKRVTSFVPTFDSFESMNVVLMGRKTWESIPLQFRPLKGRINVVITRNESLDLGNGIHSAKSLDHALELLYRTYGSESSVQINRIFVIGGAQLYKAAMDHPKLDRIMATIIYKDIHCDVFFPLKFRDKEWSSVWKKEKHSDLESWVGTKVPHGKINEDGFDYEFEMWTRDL
# Description: Inhibitory activity against dihydrofolate reductase (DHFR) from Pneumocystis carinii
# [34] = tested on: MDA-MB-435; experiment: Inhibition of the growth of breast cancer (MDA-MB-435) cell line at 0.01 uM; assay type: functional; details: Homo sapiens
# [35] = tested on: CAKI-1; experiment: Inhibition of the growth of renal cancer(CAKI-1) cell line; assay type: functional; details: Homo sapiens
# [36] = tested on: OVCAR-8; experiment: Inhibition of the growth of ovarian cancer(OVCAR-8) cell line at 0.01 uM; assay type: functional; details: Homo sapiens
# [37] = tested on: DU-145; experiment: Inhibition of the growth of prostate cancer(DU-145) cell line; assay type: functional; details: Homo sapiens
# [38] = tested on: NCI-H460; experiment: Inhibition of the growth of non-small-cell lung cancer (NCI-H460) cell line; assay type: functional; details: Homo sapiens
# [39] = tested on: SK-MEL-5; experiment: Inhibition of the growth of melanoma cancer (SK-MEL-5) cell line at 0.01 uM; assay type: functional; details: Homo sapiens
# [40] = tested on: RPMI-8226; experiment: Inhibition of the growth of leukemia (RPMI-8226) cell line at 0.01 uM; assay type: functional; details: Homo sapiens
# [41] = tested on: SF-539; experiment: inhibition of the growth of CNS cancer(SF-539) cell line. value in parentheses is percent inhibition at 0.01 uM; assay type: functional; details: Homo sapiens
# [42] = tested on: HCT-116; experiment: Inhibition of the growth of colon cancer(HCT116) cell line at 0.01 uM; assay type: functional; details: Homo sapiens
# [43] = tested on: NCI/ADR-RES; experiment: Inhibition of the growth of breast cancer (MCF7/ADR-RES) cell line at 0.01 uM; assay type: functional; details: Homo sapiens
# [44] = molecular target: T3, Dihydrofolate reductase (Rattus norvegicus, UniProt Q920D2)
# T3 sequence (Q920D2 whole entry): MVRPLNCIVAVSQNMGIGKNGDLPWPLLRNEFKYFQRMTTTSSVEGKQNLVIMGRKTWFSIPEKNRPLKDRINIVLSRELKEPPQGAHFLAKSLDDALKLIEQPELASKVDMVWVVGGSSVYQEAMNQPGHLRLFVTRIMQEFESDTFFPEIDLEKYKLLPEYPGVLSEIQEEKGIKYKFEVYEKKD
# Description: Inhibitory activity against dihydrofolate reductase (DHFR) from rat liver
# [45] = tested on: SF-295; experiment: inhibition of the growth of CNS cancer(SF-295) cell line; assay type: functional; details: Homo sapiens
# [46] = tested on: MDA-N; experiment: Inhibition of the growth of breast cancer(MDA-N) cell line at 0.01 uM; assay type: functional; details: Homo sapiens
# [47] = tested on: NCI-H23; experiment: Inhibition of the growth of non-small-cell lung cancer (NCI-H23) cell line at 0.01 uM; assay type: functional; details: Homo sapiens
# [48] = tested on: MOLT-4; experiment: Inhibition of the growth of leukemia (MOLT-4) cell line.; assay type: functional; details: Homo sapiens
# [49] = tested on: SF-268; experiment: inhibition of the growth of CNS cancer(SF-268) cell line; assay type: functional; details: Homo sapiens
# [50] = tested on: HCT-15; experiment: Inhibition of the growth of colon cancer(HCT-15) cell line. value in parentheses is percent inhibition at 0.01 uM; assay type: functional; details: Homo sapiens
# [51] = tested on: SNB-19; experiment: Inhibition of the growth of CNS cancer(SNB-19) cell line at 0.01 uM; assay type: functional; details: Homo sapiens
smiles,measurement,setting,value
COc1ccc(N(C)c2ccc3nc(N)nc(N)c3n2)cc1,inhibition at 0.01 µM,[1],84%
same,inhibition at 0.01 µM,[2],55%
same,GI50,[3],20 nM
same,GI50,[4],< 10 nM
same,inhibition at 0.01 µM,[5],62%
same,IC50,[6],8.6 nM
same,inhibition at 0.01 µM,[7],59%
same,GI50,[8],< 10 nM
same,inhibition at 0.01 µM,[9],68%
same,inhibition at 0.01 µM,[10],53%
same,inhibition at 0.01 µM,[11],67%
same,GI50,[12],< 10 nM
same,GI50,[13],< 10 nM
same,GI50,[14],60 nM
same,GI50,[15],< 10 nM
same,GI50,[16],< 10 nM
same,GI50,[17],< 10 nM
same,GI50,[18],< 10 nM
same,GI50,[19],< 10 nM
same,GI50,[20],20 nM
same,GI50,[21],< 10 nM
same,GI50,[22],< 10 nM
same,GI50,[23],590 nM
same,GI50,[24],< 10 nM
same,GI50,[25],< 10 nM
same,inhibition at 0.01 µM,[26],74%
same,GI50,[27],< 10 nM
same,inhibition at 0.01 µM,[28],53%
same,inhibition at 0.01 µM,[29],62%
same,GI50,[30],< 10 nM
same,inhibition at 0.01 µM,[31],51%
same,GI50,[32],< 10 nM
same,IC50,[33],220 nM
same,inhibition at 0.01 µM,[34],68%
same,GI50,[35],< 10 nM
same,inhibition at 0.01 µM,[36],90%
same,GI50,[37],< 10 nM
same,GI50,[38],< 10 nM
same,inhibition at 0.01 µM,[39],65%
same,inhibition at 0.01 µM,[40],59%
same,GI50,[41],30 nM
same,inhibition at 0.01 µM,[42],83%
same,inhibition at 0.01 µM,[43],100%
same,IC50,[44],6.8 nM
same,GI50,[45],< 10 nM
same,inhibition at 0.01 µM,[46],66%
same,inhibition at 0.01 µM,[47],54%
same,GI50,[48],20 nM
same,GI50,[49],< 10 nM
same,inhibition at 0.01 µM,[50],67%
same,inhibition at 0.01 µM,[51],51%
